How the values were obtained:
Experiment in all cases: relative viability (nuclei count vs DMSO), 5 days (fraction); higher = more cells survive
[1] = compound: CN1CCC(CC1)OC2=CC(=C(C=C2)NC3=NC=C4C(=N3)N(C(=O)N4C)C5CCCC5)OC [AZ3146] + CS(=O)(=O)CCNCc1ccc(-c2ccc3ncnc(Nc4ccc(OCc5cccc(F)c5)c(Cl)c4)c3c2)o1 [Lapatinib] (partner 2 µM)
Outline: (§1)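 Lung cancer cell lines in 1536-well plates got either a single drug or a fixed anchor-drug dose together with five library-drug doses (not always all listed) in √10 steps, by pin tool, on the day after seeding. Nuclei were counted after 5 days, and relative viability is the treated-to-vehicle ratio of nuclei counts. Values are medians of duplicate plates.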

[2] = compound: CCOC(=O)CCNc1cc(N2CCc3ccccc3CC2)nc(-c2ccccn2)n1 [GSK-J4] + COc1cccc2cc(-c3nc([C@H]4CC[C@H](C(=O)O)CC4)n4ncnc(N)c34)[nH]c12 [OSI-027] (partner 0.5 µM)
Outline: as §1

[3] = compound: CN1CCC(CC1)OC2=CC(=C(C=C2)NC3=NC=C4C(=N3)N(C(=O)N4C)C5CCCC5)OC [AZ3146] + CCNC(=O)c1noc(-c2cc(C(C)C)c(O)cc2O)c1-c1ccc(CN2CCOCC2)cc1 [Luminespib] (partner 0.01 µM)
Outline: as §1

[4] = compound: CN1CCC(CC1)OC2=CC(=C(C=C2)NC3=NC=C4C(=N3)N(C(=O)N4C)C5CCCC5)OC [AZ3146] + NC(=O)Nc1cc(-c2cccc(F)c2)sc1C(=O)N[C@H]1CCCNC1 [AZD7762] (partner 0.2 µM)
Outline: as §1

Cell Line | relative viability ([1]; first compound 0.08 µM) | relative viability ([1]; first compound 0.253 µM) | relative viability ([1]; first compound 0.8 µM) | relative viability ([1]; first compound 2.53 µM) | relative viability ([1]; first compound 8 µM) | relative viability ([2]; first compound 0.5 µM) | relative viability ([2]; first compound 1.581 µM) | relative viability ([2]; first compound 5 µM) | relative viability ([2]; first compound 15.81 µM) | relative viability ([2]; first compound 50 µM) | relative viability ([3]; first compound 0.08 µM) | relative viability ([3]; first compound 0.253 µM) | relative viability ([3]; first compound 0.8 µM) | relative viability ([3]; first compound 2.53 µM) | relative viability ([3]; first compound 8 µM) | relative viability ([4]; first compound 0.08 µM) | relative viability ([4]; first compound 0.253 µM) | relative viability ([4]; first compound 0.8 µM) | relative viability ([4]; first compound 2.53 µM) | relative viability ([4]; first compound 8 µM)
HCC-827 | 0.155 | 0.191 | 0.175 | 0.237 | 0.191 | 0.751 | 0.635 | 0.792 | 0.576 | 0.787 | 0.62 | 0.616 | 0.574 | 0.609 | 0.598 | 0.154 | 0.17 | 0.188 | 0.212 | 0.213
HOP-62 | 0.958 | 0.975 | 0.941 | 0.846 | 1.06 | 0.69 | 0.692 | 0.722 | 0.858 | 0.497 | 0.943 | 0.865 | 0.87 | 0.959 | 0.992 | 0.276 | 0.61 | 0.485 | 0.582 | 0.791
IA-LM | – | 0.955 | 0.718 | 0.72 | 0.49 | – | – | – | – | – | – | – | – | – | – | – | – | – | – | –
LCLC-103H | – | – | – | – | – | 0.438 | 0.325 | 0.379 | 0.432 | 0.326 | 1.01 | 0.917 | 0.966 | 1.01 | 1.02 | 0.623 | 0.714 | 0.767 | 0.789 | 0.831
NCI-H441 | – | – | – | – | – | 0.673 | 0.472 | 0.567 | 0.536 | 0.433 | 0.274 | 0.465 | 0.353 | 0.38 | 0.473 | 1.08 | 1.31 | 1.14 | 1.09 | 0.949
NCI-H520 | 0.797 | 0.84 | 0.838 | 0.965 | 0.576 | 0.33 | 0.22 | 0.278 | 0.248 | 0.257 | 0.243 | 0.214 | 0.223 | 0.255 | 0.248 | – | – | – | – | –
NCI-H522 | – | – | – | – | – | 0.78 | 0.637 | 0.541 | 0.585 | 0.543 | 1.1 | 1.03 | 1.2 | 1.13 | 1.18 | 0.803 | 0.57 | 0.807 | 0.698 | 0.577
NCI-H661 | 0.661 | 0.514 | 0.559 | 0.537 | 0.472 | 0.694 | 0.645 | 0.559 | 0.542 | 0.435 | 0.928 | 0.968 | 0.96 | 0.896 | 0.688 | – | – | – | – | –
NCI-H1299 | 0.892 | 0.97 | 0.985 | 0.958 | 0.787 | – | – | – | – | – | – | – | – | – | – | – | – | – | – | –
NCI-H1563 | 0.695 | 0.881 | 0.951 | 0.927 | 0.873 | 0.796 | 0.766 | 0.659 | 0.659 | 0.748 | 0.465 | 0.525 | 0.477 | 0.51 | 0.511 | – | – | – | – | –
NCI-H1648 | – | – | – | – | – | 0.239 | – | 0.308 | 0.262 | 0.23 | – | – | – | – | – | – | – | 0.863 | 0.757 | 0.624
NCI-H1650 | 0.649 | 1.12 | 0.562 | 0.97 | 0.581 | 0.732 | 0.365 | 0.673 | 0.606 | 0.553 | 0.214 | 0.201 | 0.185 | 0.189 | 0.186 | – | – | – | – | –
NCI-H1703 | 1.16 | 1.26 | 0.953 | 0.892 | 0.372 | – | – | – | – | – | – | – | – | – | – | 0.104 | 0.164 | 0.106 | – | 0.183
NCI-H2009 | 0.817 | 0.975 | 1.06 | 1.09 | 0.409 | 0.573 | 0.491 | 0.601 | 0.527 | 0.283 | 0.996 | 1.06 | 0.973 | 1.06 | 0.999 | – | – | – | – | –
NCI-H2023 | 0.688 | 0.922 | 0.735 | 0.941 | 0.179 | 0.409 | – | 0.403 | 0.321 | 0.194 | 0.657 | 0.774 | 0.78 | 0.593 | 0.153 | – | – | – | – | –
NCI-H2228 | 1.08 | 1.13 | 1.21 | 1.23 | 0.889 | 0.593 | 0.544 | 0.616 | 0.415 | 0.459 | 0.133 | 0.149 | 0.162 | 0.145 | 0.146 | – | – | – | – | –
NCI-H2342 | – | – | – | – | – | 0.669 | 0.626 | 0.662 | 0.615 | 0.699 | 0.624 | 0.719 | 0.901 | 0.698 | 0.688 | 0.472 | 0.481 | 0.489 | 0.521 | 0.529
SK-LU-1 | 0.803 | 0.972 | 0.825 | 1.13 | 0.697 | 0.339 | 0.318 | 0.258 | 0.292 | 0.218 | 0.216 | 0.206 | 0.231 | 0.252 | 0.231 | – | – | – | – | –
SK-MES-1 | 0.496 | 0.43 | 0.424 | 0.523 | 0.432 | 0.573 | 0.542 | 0.535 | 0.436 | 0.327 | 0.657 | 0.581 | 0.769 | 0.847 | 0.585 | – | – | – | – | –
SW 900 | – | – | – | – | – | 0.543 | 0.602 | 0.504 | 0.52 | 0.331 | 0.176 | 0.167 | 0.18 | 0.184 | 0.167 | 0.527 | – | 0.59 | 0.767 | 0.519
SW 1573 | 1.19 | 1.17 | 1.07 | 1.04 | 1.05 | 0.657 | 0.423 | 0.507 | 0.519 | 0.211 | 0.699 | 0.14 | 0.393 | 0.204 | 0.273 | – | – | – | – | –
UMC-11 | 0.793 | 0.963 | 0.99 | 0.978 | 0.531 | 0.474 | – | 0.362 | 0.423 | 0.34 | 0.959 | 1.2 | 1.09 | 0.86 | 0.256 | – | – | – | – | –
